Experimental findings from ChEMBL document CHEMBL1201862, “PubChem BioAssay data set” (2004) are described below.

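Protocol summary: plate cells (96-well), add compound at 5 concentrations, incubate 48 h, interpolate endpoints linearly. At the GI50, growth is halved.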 Activity calls are given as the source filed them. No stated cut-off is given here; in the data, active = GI50 up to about 1.1 µM and inactive = higher. Some results are limits rather than exact numbers.

What all share (experiment): growth of human tumour cells (NCI), 48 h
In assay [1] the test system is 786-0.
Assay [2] has as its system CAKI-1.
The subject of assay [3] is EKVX.
Assay [4] relates to M14.
The subject of assay [5] is MCF7.
For assay [6], the system named is MDA-N.
For assay [7], the system named is NCI-H23.
The test system of assay [8] is NCI/ADR-RES.
Assay [9] deals with OVCAR-8.
Assay [10] has as its system SF-268.
Assay [11] deals with SK-OV-3.
In assay [12] the test system is SN12C.
The test system of assay [13] is SR.
Assay [14] deals with SW-620.
Assay [15] concerns UACC-62.
In assay [16] the test system is HT-29.
The test system of assay [17] is NCI-H522.
Assay [18] relates to SK-MEL-2.
Assay [19] has as its system MDA-MB-435.
Assay [20] has as its system PC-3.

`COc1ccc(/C(C)=N/NC(=O)c2ccncc2)c(OC)c1`: the GI50 in assay [1], in assay [2], in assay [3], in assay [4], in assay [5] and in assay [6] was > 10 µM (inactive) each time. In addition, the GI50 in assay [7], in assay [8], in assay [9], in [10], in [11] and in [12] was > 10 µM (inactive) each time. The GI50 in assay [13], in assay [14] and in assay [15] was > 10 µM (inactive) in each case.

As for `CC12CCC([C@H](N3CCOCC3)/C1=N\OCCN1CCCC1)C2(C)C` (stereo not given in full), the GI50 in [1], in assay [2], in [3], in [16], in assay [4] and in [7] was > 100 µM (inactive) each time. Moreover, the GI50 in assay [17], in [9], in assay [10], in assay [18], in assay [11] and in assay [12] was > 100 µM (inactive) each time. Further, the GI50 in assay [13], in [14] and in assay [15] was > 100 µM (inactive) each time.

On to `CCOC(=O)c1sc2c(c1OC(=O)c1ccccc1)c(=O)n(-c1ccccc1)c(=S)n2-c1ccccc1`, for which the GI50 in assay [1] was 15.9 µM (inactive); in assay [2], 97.9 µM (inactive); in [3], 63.8 µM (inactive); in assay [16], 19.2 µM (inactive); in assay [4], 19.9 µM (inactive); in assay [5], 29.4 µM (inactive). Besides, the GI50 in assay [19] was 20.9 µM (inactive); in assay [7], 21 µM (inactive); in [17] it was 23.6 µM (inactive); in assay [8] it was 19.1 µM (inactive); in assay [9] it was 34.3 µM (inactive); in [20] it was 33.7 µM (inactive). The GI50 in assay [10] is 38.5 µM (inactive); in assay [11], 38.2 µM (inactive); in [12], > 100 µM (inactive); in assay [14] it was 44.6 µM (inactive); in assay [15], 23.7 µM (inactive).

As to `C/C(Nc1ccc(Cl)cc1Cl)=C1/CCOC1=O`, the GI50 in [1] was 40.4 µM (inactive); in assay [3] it was 10.4 µM (inactive); in assay [16], > 100 µM (inactive); in [5], > 100 µM (inactive); in [19], > 100 µM (inactive); in assay [7], 59.3 µM (inactive). In addition, the GI50 in assay [17] was 86.5 µM (inactive); in assay [8], 77.6 µM (inactive); in [9], 48.3 µM (inactive); in assay [20], > 100 µM (inactive); in assay [10], 30.8 µM (inactive); in assay [12] it was 41.5 µM (inactive). In addition, the GI50 in assay [13] was > 100 µM (inactive); in assay [14], > 100 µM (inactive); in [15], 63.7 µM (inactive).

With `CNC(SC)=C1C(=O)OC(C)(C)OC1=O`, the GI50 in assay [1], in assay [2], in assay [3], in assay [16], in [4] and in [7] was > 100 µM (inactive) each time. Also, the GI50 in [17] was > 100 µM (inactive); in [9], > 100 µM (inactive); in assay [10], > 100 µM (inactive); in assay [18], 37.1 µM (inactive); in [11], > 100 µM (inactive); in assay [12], > 100 µM (inactive). For the same compound, the GI50 in assay [13] is > 100 µM (inactive); in [14] it was 20 µM (inactive); in [15] it was > 100 µM (inactive).

With `CCOC(=O)/C(=C/c1cccc(C#N)c1)N(CC)CC`, the GI50 in assay [1], in assay [2], in assay [3], in [16], in assay [4] and in assay [7] was > 100 µM (inactive) each time. For the same compound, the GI50 in assay [17], in [9], in assay [10], in [18], in assay [11] and in assay [12] was > 100 µM (inactive) throughout. Moreover, the GI50 in [13], in assay [14] and in assay [15] was > 100 µM (inactive) in each case.

Regarding `CC(C)(C)OC(=O)NC(CCCCNC(=O)OCc1ccccc1)C(=O)NC(CCCCNC(=O)OCc1ccccc1)C(=O)ON1C(=O)CCC1=O` (stereo not given), the GI50 in [1], in assay [3], in assay [16], in assay [4], in assay [5] and in [6] was > 100 µM (inactive) throughout. In addition, the GI50 in [7], in [9], in assay [20], in assay [18], in [12] and in [13] was > 100 µM (inactive) each time. Also, the GI50 in [14] and in [15] was > 100 µM (inactive) each time.

As for `Cc1cccc(NS(=O)(=O)c2ccc3c(c2)OCCOCCOCCOCCO3)c1`, the GI50 in assay [1], in assay [2], in assay [3], in [16], in [4] and in [5] was > 100 µM (inactive) in each case. In addition, the GI50 in assay [19] is > 100 µM (inactive); in assay [6] it was > 100 µM (inactive); in assay [7], > 100 µM (inactive); in assay [17], 16.1 µM (inactive); in assay [9], > 100 µM (inactive); in [20], > 100 µM (inactive). In addition, the GI50 is > 100 µM (inactive) in assay [10]; > 100 µM (inactive) in assay [11]; > 100 µM (inactive) in assay [12]; 53 µM (inactive) in assay [13]; > 100 µM (inactive) in [14]; > 100 µM (inactive) in [15].

`COc1cc(C(=O)C/C(CCC(=O)Nc2ccc(Cl)cc2Cl)=N/Nc2nnc(C)n2N)ccc1O`: the GI50 was > 100 µM (inactive) in [1]; 45.9 µM (inactive) in assay [2]; 67.1 µM (inactive) in assay [3]; > 100 µM (inactive) in assay [16]; > 100 µM (inactive) in assay [4]; > 100 µM (inactive) in assay [7]. Moreover, the GI50 in assay [17], in assay [9], in [10], in assay [18], in assay [11] and in [12] was > 100 µM (inactive) in each case. The GI50 in assay [13], in [14] and in [15] was > 100 µM (inactive) in each case.

With `CC1=Nc2ccccc2S(=O)(=O)N1`, the GI50 in assay [1], in assay [2], in assay [3], in assay [16], in [4] and in assay [7] was > 100 µM (inactive) throughout. Moreover, the GI50 in assay [17], in assay [9], in assay [10], in assay [18], in [11] and in assay [12] was > 100 µM (inactive) each time. The GI50 in assay [13], in [14] and in [15] was > 100 µM (inactive) in each case.

Regarding `CN(C)CCNC(=O)c1ccc(Cl)c2c(Nc3ccc(S(N)(=O)=O)cc3)c3ccccc3nc12`, the GI50 in [1] is 1.55 µM (inactive); in assay [2], 4.54 µM (inactive); in [3], 5.62 µM (inactive); in assay [16], 1.2 µM (inactive); in assay [4] it was 2.34 µM (inactive); in [7], 2.97 µM (inactive). Besides, the GI50 was 0.462 µM (active) in [17]; 0.65 µM (active) in assay [9]; 1.41 µM (inactive) in [10]; 1.75 µM (inactive) in [18]; 2.22 µM (inactive) in assay [11]; 1.12 µM (active) in [12]. Moreover, the GI50 in assay [13] is 0.151 µM (active); in [14] it was 0.173 µM (active); in assay [15] it was 1.56 µM (inactive).

`C/C(=C\c1ccc(Cl)c(Cl)c1)[N+](=O)[O-]`: the GI50 in assay [1] is 0.579 µM (active); in [3], 2.08 µM (inactive); in [16], 3.78 µM (inactive); in [4] it was 0.738 µM (active); in [5] it was 0.433 µM (active); in [19], 2.23 µM (inactive). The GI50 is 2.26 µM (inactive) in [7]; 1.63 µM (inactive) in [17]; 3.41 µM (inactive) in [8]; 1.13 µM (inactive) in assay [9]; 1.4 µM (inactive) in assay [10]; 1.99 µM (inactive) in assay [18]. For the same compound, the GI50 in assay [12] was 2.05 µM (inactive); in assay [13], 0.685 µM (active); in assay [14], 0.986 µM (active); in [15], 2.38 µM (inactive).

With `N=C1NC2(O)C(=O)c3ccccc3C2(O)N1` (stereo not given), the GI50 in assay [1], in [2], in assay [3], in assay [16], in assay [4] and in [7] was > 100 µM (inactive) each time. Also, the GI50 in [17], in assay [9], in [10], in assay [18], in assay [11] and in assay [12] was > 100 µM (inactive) in each case. The GI50 in assay [13], in assay [14] and in assay [15] was > 100 µM (inactive) in each case.
